The EC50 is the midpoint of the concentration-response curve.

The assay concerns the target T1, human apelin receptor (APJ, AGTRL-one, APLNR) (Homo sapiens, UniProt P35414).
T1 construct: host or cells: Chinese hamster ovary cells, stably integrated receptor
T1 sequence (P35414 1-380): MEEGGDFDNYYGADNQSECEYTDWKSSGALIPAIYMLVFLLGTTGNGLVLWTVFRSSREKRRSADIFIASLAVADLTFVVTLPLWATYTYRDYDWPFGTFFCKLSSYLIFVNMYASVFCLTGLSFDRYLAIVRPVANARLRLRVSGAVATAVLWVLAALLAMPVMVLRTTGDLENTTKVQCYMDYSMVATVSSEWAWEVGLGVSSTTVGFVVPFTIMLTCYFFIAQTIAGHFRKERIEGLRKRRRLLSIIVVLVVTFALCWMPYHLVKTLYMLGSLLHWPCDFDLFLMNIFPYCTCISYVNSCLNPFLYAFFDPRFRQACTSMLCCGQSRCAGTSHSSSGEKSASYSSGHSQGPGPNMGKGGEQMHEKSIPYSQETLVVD
Nature of the assay: cell-based cAMP TR-FRET assay of apelin receptor activation. The following applies: CHO cells expressing human APJ, forskolin-stimulated cAMP, 0.5 h incubation, 50% of control (apelin-13, 1 nM) response; read-out: Potency Category (EC50). How it is done:
The assays disclosed herein were performed using cell lines from DiscoveX, Inc. Biological activity was determined to the cell—based assay. This assay detects activation of the receptor by reporting on intracellular cyclic adenosine monophosphate (cAMP) level. Chinese hamster ovary cells engineered to express the stably integrated human apelin receptor (APJ, AGTRL—one, APLNR), pleaded into the wells of the microtiter plate. Cells were stimulated with […] to increase intracellular cyclic AMP. Immediately following, compounds were added to the range of final concentrations 0.0-100 μM, in DMSO (not to exceed a final DMSO concentration greater than 1% ν/ν), and allowed to incubate with the cells for 0.5 h. At the end of the incubation, cells were lysed to stop APJ signaling and cAMP was quantified using a commercially available competitive immunoassay kit that applies homogenous time—resolved florescence energy transfer (TR—FRET). The assay is based on the competition between a europium (Eu) chelate—labeled cAMP donor tracer and cellular cAMP for binding sites on a cAMP—specific monoclonal antibody labeled with an acceptor fluorophore. When antibodies are bound to the cAMP tracer light emissions at 320 nm stimulate the energy transfer from the donor to the acceptor, which in turn emits light at 665 nm. In the presence of competitive unlabeled cAMP (derived from the activity of the receptor or forskolin-stimulated production of cAMP), the labelled cAMP tracer is dissociated from the cAMP antibody, resulting in a loss of FRET signal. The amount of light emitted by the FRET is inversely proportional to the cAMP generated by the cell/receptor system. Potency and efficacy at APJ are reported in reference to the canonical APJ receptor agonist apelin—13 when tested at 1 nM. […] Compound efficacy (% response) is reported as a percentage of the maximal apein-13 response at 1 nM (control). Potencies were calculated by fitting a […] logistic curve to concentration response consisting of at least 10 discrete data points spanning effective range of the compounds in the cell-based assay that measures cAMP. […] Category B is 200-500 nM; Category C is 100-200 nM; Category D is 50-100 nM; and Category E is <50 nM.
For the compound `CCS(=O)(=O)c1ccc(C(Oc2ccc(C#N)cc2)C(=O)Nc2nc3ccccc3o2)cc1` (stereo not drawn), the EC50 is above 500 nM.

As to `CCS(=O)(=O)c1ccc(C(Oc2cccc(OC)c2)C(=O)Nc2nc3cc(OC)c(OC)cc3s2)cc1` (stereo not drawn), the EC50 was above 500 nM. Regarding `COCCOc1ccc(OC(C(=O)Nc2nc3cc(OC)c(OC)cc3s2)c2ccc(C#N)cc2)cc1` (stereo not drawn), the EC50 lay within 50 to 100 nM. Consider `COc1cc2nc(NC(=O)C(Oc3ccc(C#N)cc3)c3ccc(S(=O)(=O)N(C)C)cc3)sc2cc1OC` (stereo not drawn), for which the 50% effective concentration (EC50) was below 50 nM.

As to `CCS(=O)(=O)c1ccc(C(Nc2ccccc2OC)C(=O)Nc2nc3cc(OC)c(OC)cc3s2)cc1` (stereo not drawn), the EC50 is above 500 nM. In the case of `CCCc1ccc(OC(C(=O)Nc2nc3cc(OC)c(OC)cc3s2)c2ccc(S(=O)(=O)CC)cc2)cc1` (stereo not drawn), the EC50 was 200 to 500 nM. Then `CCS(=O)(=O)c1ccc(C(C(=O)Nc2nc3cc(OC)c(OC)cc3s2)N(C)C)cc1` (stereo not drawn), with above 500 nM. With `COc1cc2nc(NC(=O)C(Oc3ccc(C#N)cc3)c3ccc(C(=O)N(C)C)cc3)oc2cc1OC` (stereo not drawn), the EC50 is below 50 nM. The result for `CCS(=O)(=O)c1ccc(C(Oc2ccc(C#N)cc2)C(=O)Nc2nc3cc(OC)c(OC)cc3s2)cc1` (stereo not drawn) reads below 50 nM. In the case of `CCS(=O)(=O)c1ccc(C(Nc2cccc(OC)c2)C(=O)Nc2nc3cc(OC)c(OC)cc3s2)cc1` (stereo not drawn), the EC50 is above 500 nM. As for `COCCNS(=O)(=O)c1ccc(C(Oc2ccc(C#N)cc2)C(=O)Nc2nc3cc(OC)c(OC)cc3s2)cc1` (stereo not drawn), the EC50 lay in the range of 200 to 500 nM. As for `CCS(=O)(=O)c1ccc(C(Oc2ccc(C#N)cc2)C(=O)Nc2nc3cc(OC(C)C)c(OC)cc3s2)cc1` (stereo not drawn), the concentration giving a half-maximal response (EC50) was 200 to 500 nM. On to `COCCOc1ccc(C(Oc2ccc(C#N)cc2)C(=O)Nc2nc3cc(OC)c(OC)cc3o2)cc1` (stereo not drawn), for which the EC50 was below 50 nM. In the case of `COc1cc2nc(NC(=O)C(Oc3ccc(C#N)cc3)c3ccc(C(F)(F)F)cc3)sc2cc1OC` (stereo not drawn), the EC50 is above 500 nM. Then `CCS(=O)(=O)c1ccc(C(Oc2ccc(C#N)cc2)C(=O)Nc2nc3cc(OC)c(C)cc3s2)cc1` (stereo not drawn), with 200 to 500 nM; and `COc1cc2nc(NC(=O)C(Oc3ccc(C#N)cc3)c3ccc(C(=O)NCCN4CCCCC4)cc3)oc2cc1OC` (stereo not drawn), with above 500 nM; and `COc1cc2nc(NC(=O)C(Oc3ccc(OCCN4CCCC4)cc3)c3ccc(C#N)cc3)sc2cc1OC` (stereo not drawn), with 50 to 100 nM. In the case of `CCS(=O)(=O)c1ccc(C(Oc2ccc(C(F)(F)F)cc2)C(=O)Nc2nc3cc(OC)c(OC)cc3s2)cc1` (stereo not drawn), the EC50 lay within 200 to 500 nM.

As to `COc1cc2nc(NC(=O)Cc3ccc(S(=O)(=O)CC4CC4)cc3)sc2cc1OC`, the EC50 was above 500 nM. The result for `CCS(=O)(=O)c1ccc(CC(=O)Nc2nc3cc(OC)c(O)cc3[nH]2)cc1` reads above 500 nM. Consider `COc1cc2nc(NC(=O)C(Oc3ccc(C#N)cc3)c3ccc(C(=O)O)cc3)sc2cc1OC` (stereo not drawn), for which the EC50 is above 500 nM. The result for `COc1cc2nc(NC(=O)C(Oc3ccc(OCCN4CCCCC4)cc3)c3ccc(C#N)cc3)sc2cc1OC` (stereo not drawn) reads 50 to 100 nM.

For the compound `CCS(=O)(=O)c1ccc(C(Oc2ccc(C#N)cc2)C(=O)Nc2nc3cc(F)c(OC)cc3s2)cc1` (stereo not drawn), the EC50 is above 500 nM. Turning to `CCS(=O)(=O)c1ccc(C(Oc2cccc(C#N)c2)C(=O)Nc2nc3cc(OC)c(OC)cc3s2)cc1` (stereo not drawn), the EC50 was above 500 nM. Then `COc1cc2nc(NC(=O)Cc3cccc(S(=O)(=O)c4ccc(F)cc4)c3)sc2cc1OC`, with above 500 nM.

Take `COc1cc2nc(NC(=O)C(Oc3ccc(C(=O)N4CCNCC4)cc3)c3ccc(C#N)cc3)sc2cc1OC` (stereo not drawn): the EC50 is below 50 nM. For the compound `COc1cc2nc(NC(=O)C(Oc3ccc(OCCN4CCOCC4)cc3)c3ccc(C#N)cc3)sc2cc1OC` (stereo not drawn), the 50% effective concentration (EC50) is 50 to 100 nM.

With `CCS(=O)(=O)c1ccc(C(Oc2ccc(C#N)cc2F)C(=O)Nc2nc3cc(OC)c(OC)cc3s2)cc1` (stereo not drawn), the 50% effective concentration (EC50) is below 50 nM. Consider `CCCCOc1ccc(OC(C(=O)Nc2nc3cc(OC)c(OC)cc3s2)c2ccc(S(=O)(=O)CC)cc2)cc1` (stereo not drawn), for which the EC50 is above 500 nM. For the compound `COCCNC(=O)c1ccc(OC(C(=O)Nc2nc3cc(OC)c(OC)cc3s2)c2ccc(C#N)cc2)cc1` (stereo not drawn), the concentration for a half-maximal effect (EC50) is above 500 nM. Take `CCS(=O)(=O)c1ccc(C(Oc2ccc(C#N)cc2)C(=O)Nc2nc3ccc(F)c(OC)c3s2)cc1` (stereo not drawn): the EC50 was above 500 nM. In the case of `CCS(=O)(=O)c1ccc(C(Oc2ccc(Br)cc2)C(=O)Nc2nc3cc(OC)c(OC)cc3s2)cc1` (stereo not drawn), the EC50 lay within 200 to 500 nM. With `COc1cc2nc(NC(=O)C(Oc3ccc(C#N)cc3)c3ccc(OC(C)C)cc3)sc2cc1OC` (stereo not drawn), the concentration for a half-maximal effect (EC50) is below 50 nM.

For `CCS(=O)(=O)c1ccc(C(Oc2ccc(F)cc2)C(=O)Nc2nc3cc(OC)c(OC)cc3s2)cc1` (stereo not drawn), the EC50 was above 500 nM. In the case of `COc1ccc(OC(C(=O)Nc2nc3cc(OC)c(OC)cc3s2)c2cccc(S(=O)(=O)c3ccc(F)cc3)c2)cc1` (stereo not drawn), the EC50 was above 500 nM. The result for `CCS(=O)(=O)c1ccc(C(Oc2ccccc2C)C(=O)Nc2nc3cc(OC)c(OC)cc3s2)cc1` (stereo not drawn) reads above 500 nM; that for `CCS(=O)(=O)c1ccc(CC(=O)Nc2nc3cc(OC)c(OC)cc3o2)cc1`, above 500 nM. With `CCS(=O)(=O)c1ccc(C(Oc2ccc(C#N)c(C)c2)C(=O)Nc2nc3cc(OC)c(OC)cc3s2)cc1` (stereo not drawn), the concentration for a half-maximal effect (EC50) fell in the range of 50 to 100 nM. Then `COc1cc2nc(NC(=O)Cc3cccc(C(=O)N(C)C)c3)sc2cc1OC`, with above 500 nM; and `CCC(C(=O)Nc1nc2cc(OC)c(OC)cc2s1)c1ccc(S(=O)(=O)CC)cc1` (stereo not drawn), with above 500 nM; and `CCS(=O)(=O)c1ccc(C(Nc2ccc(C#N)cc2)C(=O)Nc2nc3cc(OC)c(OC)cc3s2)cc1` (stereo not drawn), with below 50 nM. As to `COc1cc2nc(NC(=O)Cc3cccc(C(=O)O)c3)sc2cc1OC`, the EC50 was above 500 nM. Take `COc1ccc(S(=O)(=O)c2cccc(C(Oc3ccc(C#N)cc3)C(=O)Nc3nc4cc(OC)c(OC)cc4s3)c2)cc1` (stereo not drawn): the EC50 is above 500 nM. As for `COc1cc2nc(NC(=O)C(Oc3ccc(C#N)cc3)c3ccc(C(=O)NCCO)cc3)sc2cc1OC` (stereo not drawn), the EC50 is 50 to 100 nM. As to `CCS(=O)(=O)c1ccc(C(Oc2ccc(C#N)cc2)C(=O)Nc2nc3cc(OC)c(Cl)cc3s2)cc1` (stereo not drawn), the EC50 was above 500 nM. Regarding `CCS(=O)(=O)c1ccc(C(Oc2ccc(C#N)cc2)C(=O)Nc2nc3ccc(N4CCN(C)CC4)cc3s2)cc1` (stereo not drawn), the EC50 is above 500 nM.

As to `COc1cc2nc(NC(=O)Cc3ccc(C(=O)N(C)C)cc3)sc2cc1OC`, the EC50 is above 500 nM.

Take `CCS(=O)(=O)c1ccc(C(OCC2CCCCC2)C(=O)Nc2nc3cc(OC)c(OC)cc3s2)cc1` (stereo not drawn): the EC50 was above 500 nM. `CCS(=O)(=O)c1ccc(C(Oc2ccc(OCc3ccccc3)cc2)C(=O)Nc2nc3cc(OC)c(OC)cc3s2)cc1` (stereo not drawn): the EC50 is above 500 nM.

For `CCS(=O)(=O)c1ccc(C(NC2CCCC2)C(=O)Nc2nc3cc(OC)c(OC)cc3s2)cc1` (stereo not drawn), the EC50 is above 500 nM. For the compound `COc1cc2nc(NC(=O)C(Oc3ccc(C#N)cc3)c3ccc(C(=O)NCCN4CCOCC4)cc3)oc2cc1OC` (stereo not drawn), the EC50 was in the range of 200 to 500 nM.

For the compound `CCN(CC)c1ccc2sc(NC(=O)Cc3ccc(S(=O)(=O)CC)cc3)nc2c1`, the EC50 is above 500 nM. Turning to `COc1ccc(C(Oc2ccc(C#N)cc2)C(=O)Nc2nc3cc(OC)c(OC)cc3s2)cc1` (stereo not drawn), the EC50 was below 50 nM. As to `COc1cc2nc(NC(=O)C(Oc3ccc(C#N)cc3)c3ccc(C(=O)N4CCNCC4)cc3)sc2cc1OC` (stereo not drawn), the EC50 was 200 to 500 nM. The result for `CCS(=O)(=O)c1ccc(CC(=O)Nc2nc3cc(OC)c(OC)cc3s2)cc1` reads 200 to 500 nM; that for `CCS(=O)(=O)c1ccc(C(Oc2ccc(C#N)cc2)C(=O)Nc2nc3ccc4c(c3s2)OCCO4)cc1` (stereo not drawn), 50 to 100 nM. As to `CCS(=O)(=O)c1ccc(CC(=O)Nc2nc3ccc(N4CCN(C)CC4)cc3s2)cc1`, the EC50 was above 500 nM.

Values taken from US12071414B2, “Apelin receptor agonists and methods of use thereof” (Sanford Burnham Prebys Medical Discovery Institute, priority 2015, dated 2024).
